PMC7835894 (Molecules, 2021)

How the values were obtained:
Vero = experiment: MTT antiproliferation/cytotoxicity assay; format: cell-based, African green monkey; details: Chlorocebus sabaeus, Vero normal cells, 24 h, mean ± SEM
Description: (§1) The antiproliferation and cytotoxicity were assessed using 3-(4,5-dimethylthiazol-2-yl)-2,5-diphenyltetrazolium bromide (MTT, Serva) colorimetric assay. To investigate the antiproliferation, all cell lines were seeded at a density of 20,000 cells per well in 96-well plates and allowed to adhere overnight. […] These concentrations were prepared by diluting the stock solutions with serum-free culture media. The negative control cells were those treated with 0.1% DMSO solvent alone. The treated cells were handled in reduced light and maintained under standard culture growth conditions for 24 h. After the incubation period, MTT powder was prepared as a stock solution (5 mg/mL) and 20 μL of the MTT working reagent (final concentration 0.5 mg/mL) was added to each well. This was followed by incubation with MTT reagent for 4 h in a humidified atmosphere (37 °C, 5% CO2) with subsequent addition of 150 μL of DMSO solubilizing solvent and incubation for 20 min. The absorbance of solubilized violet formazan crystals was measured at 540 nm with Biotek 800 TS microplate reader. IC50 was calculated as the concentration of retinoid that produced 50% cell growth inhibition. For cytotoxicity assessment, WI-38 normal human fibroblast cells were used for the calculation of SI which is the ratio of IC50 retinoid (WI-38)/IC50 retinoid (cancer cell line).

Caco-2 cells [1] = experiment: Annexin V-FITC/PI apoptosis assay (flow cytometry); format: cell-based, human; details: Caco-2, IC50 concentration
Description: The ability of synthetic retinoids to induce apoptosis in one of the sensitive cancer cell lines (namely, Caco-2 cells) was detected by Annexin V-FITC and PI according to the protocol of the detection kit (Beckman Coulter, Brea, CA, USA). […] Cells were collected, washed with phosphate-buffered saline (PBS) (Lonza), and resuspended in 1 mL of binding buffer. 100 µL cell suspension was incubated with 1 µL FITC-labeled Annexin V and 5 µL PI for 15 min at 4 °C in the dark. Finally, 400 µL ice-cold binding buffer was added, and the apoptotic cells in each sample were analyzed by Beckman Coulter Epics XL flow cytometer. Apoptotic index (AI) was calculated as the number of apoptotic cell deaths expressed as a percentage from the total gated cells.

HepG2 = experiment: MTT antiproliferation assay; format: cell-based, human; details: for IC50: Homo sapiens, HepG2, MTT, 24 h, mean ± SEM; for SI (selectivity index): HepG2, SI = IC50 (WI-38)/IC50 (cancer cell line)
Description: as §1

Huh7 = experiment: MTT antiproliferation assay; format: cell-based, human; details: for IC50: Homo sapiens, Huh-7, Huh7, MTT, 24 h, mean ± SEM; for SI (selectivity index): Huh7, SI = IC50 (WI-38)/IC50 (cancer cell line)
Description: as §1

Caco-2 cells [2] = experiment: Transwell cell invasion assay; format: cell-based, human; details: IC50 concentration; for inhibition in Caco-2 cell invasion compared to control: 24 h; for percentage inhibition of Caco-2 cell invasion: 48 h
Description: Caco-2 cell invasion was assessed using a QCM™ 24-well Colorimetric Cell Invasion Assay kit (Chemicon International, Temecula, CA, USA (Cat # ECM551)), according to the manufacturer’s instructions. Cells were starved of serum for 24 h. […] Inserts were further added into a 24-well plate containing 500 µL of 10% FBS-containing DMEM per well. After incubation for 24 or 48 h at 37 °C, remaining media was removed from the invasion chamber, and cells that had migrated to the other side of the membrane were stained with “Cell Stain” solution for 20 min at room temperature. Non-invaded cells were carefully removed from the upper side of the chamber with the help of cotton-tipped swabs. The stain of invaded cells was then extracted by 200 µL of extraction buffer in a clean well for 15 min at room temperature. Finally, 100 µL extracted stained solution was transferred into a 96-well plate and the optical density was measured at 490 nm with BioTek 800 TS microplate reader.

Caco-2 cells [3] = experiment: Total antioxidant capacity (TAC/TAO); format: cell-based, human; details: Caco-2 cell lysate, IC50 concentration, 24 h; solvent control 32.6 ± 0.21
Description: Total antioxidant capacity was assayed spectrophotometrically using a Biodiagnostics® kit (Catalogue number TA 25 13, Biodiagnostics, Cairo, Egypt). […] The measurement of total antioxidants is based on treating the cell lysate with a known excess of H2O2 (50 µM). A certain amount of H2O2, equivalent to TAC, is eliminated leaving a residual amount of H2O2 that is quantified colorimetrically by the enzymatic conversion of 3, 5, dichloro-2-hydroxy benzene sulphonate to a colored product.

Caco-2 cells [4] = experiment: Intracellular and secreted glutamate assay; format: cell-based, human; details: Caco-2, IC50 doses, 24 h
Description: The glutamate assay was performed using the Glutamate Assay Kit (Sigma-Aldrich, MAK004, St. Louis, MO, USA) according to the manufacturer’s protocol. […] Cells were lysed using 100 µL glutamate assay buffer and insoluble cell debris was then removed by centrifugation at 13,000× g for 10 min. The supernatant was transferred to a 10-KDa molecular weight cut-off (MWCO) spin filter (Sigma-Aldrich, St. Louis, MO, USA) to remove any particulates in the sample, and then was brought to a final volume of 50 µL with glutamate assay buffer and transferred to a 96-well plate. Finally, 100 µL of reaction mix was added to each well and the mixture was incubated for 30 min at 37 °C. The optical density was measured at 450 nm using BioTek 800 TS microplate reader (BioTek, Winooski, VT, USA). For the measurement of secreted glutamate, 50 μL samples of extracellular culture medium were placed in a 96-well plate and the kit’s enzymatic reaction mix was added to induce a glutamate-dependent color change. After 30 min incubation, the reaction products were read at the same wavelength. For determination of glutamate concentration (nmole/µL), a calibration curve was constructed using supplied 0.1 M glutamate standard with different dilutions (0 (blank), 2, 4, 6, 8 and 10 nmole per well). Glutamate concentration was measured according to the manufacturer’s instruction and as documented in earlier studies.

WI-38 = experiment: MTT antiproliferation/cytotoxicity assay; format: cell-based, human; details: for IC50: Homo sapiens, WI-38 normal cells, MTT, 24 h, mean ± SEM; for SI (selectivity index): WI-38, SI = IC50 (WI-38)/IC50 (cell line)
Description: as §1

Caco-2 cells [5] = experiment: Cell cycle analysis (PI, flow cytometry); format: cell-based, human; details: Caco-2, IC50 of retinoid
Description: The cell cycle analysis was performed using flow cytometry (Beckman Coulter, Brea, CA, USA). […] After incubation, cells were harvested, fixed with 70% alcohol overnight, and stained with PI (50 µg/mL). DNA content was measured by Beckman Coulter Epics XL flow cytometer and G0/G1, S, and G2/M cells were gated as appropriate using Flowing Software 2.5.1 (Turko Bioimaging, Turku, Finland).

CC1=C(/C=C/C(C)=C/C=C/C(C)=C/C(=O)O)C(C)(C)CCC1 [ATRA, All-trans retinoic acid, reference compound]
IC50 (Vero): > 100 µM
% early apoptotic cells (C+−) (Caco-2 cells [1]; 12 h treatment): 11.99 ± 1.9%
% late apoptotic cells (C−+) (Caco-2 cells [1]; 12 h treatment): 0.00%
% necrotic cells (C++) (Caco-2 cells [1]; 12 h treatment): 0.01%
% viable cells (C−−) (Caco-2 cells [1]; 12 h treatment): 87.99 ± 15.0%
% early apoptotic cells (C+−) (Caco-2 cells [1]; 24 h treatment): 47.4 ± 2.5 %
% late apoptotic cells (C−+) (Caco-2 cells [1]; 24 h treatment): 0.0%
% necrotic cells (C++) (Caco-2 cells [1]; 24 h treatment): 0.28± 0.17%
% viable cells (C−−) (Caco-2 cells [1]; 24 h treatment): 52.4 ± 11.5 %
IC50 (HepG2): 36.2 ± 1.9 µM
IC50 (Huh7): > 100 µM
inhibition in Caco-2 cell invasion compared to control (Caco-2 cells [2]): 3.8%
percentage inhibition of Caco-2 cell invasion (Caco-2 cells [2]): 8.6%
Total antioxidant activity (TAO) (Caco-2 cells [3]): 62.6 ± 0.15 µM/L
released (extracellular) glutamate, magnitude of reduction (Caco-2 cells [4]): 24.1%
IC50 (WI-38): 34 ± 1.1 µM
% G0-G1 (Caco-2 cells [5]; 12 h treatment): 26.1 ± 3.6%
% G2M (Caco-2 cells [5]; 12 h treatment): 16.3 ± 1.9 %
% S (Caco-2 cells [5]; 12 h treatment): 57.5 ± 8.1 %
% SubG0-G1 (Caco-2 cells [5]; 12 h treatment): 0.14 ± 0.1%
%G2M/G0-G1 (Caco-2 cells [5]; 12 h treatment): 62.5 ± 8.8 %
% G0-G1 (Caco-2 cells [5]; 24 h treatment): 37.1 ± 4.5%
% G2M (Caco-2 cells [5]; 24 h treatment): 31.8 ± 4.8 %
% S (Caco-2 cells [5]; 24 h treatment): 29.5 ± 3.5%
% SubG0-G1 (Caco-2 cells [5]; 24 h treatment): 1.6 ± 0.19 %
%G2M/G0-G1 (Caco-2 cells [5]; 24 h treatment): 85.7 ± 16.3 %

CC1(C)CCC(C)(C)c2cc(C#Cc3cccc(C(=O)O)c3)ccc21 [EC19, 3-(5,5,8,8-tetramethyl-5,6,7,8-tetrahydronaphthalen-2-ylethynyl) benzoic acid]
IC50 (Vero): > 100 µM
% Apoptotic index (AI) (Caco-2 cells [1]; 12 h treatment): 6.3%
% early apoptotic cells (C+−) (Caco-2 cells [1]; 12 h treatment): 6.30 ± 1.1%
% late apoptotic cells (C−+) (Caco-2 cells [1]; 12 h treatment): 0.01%
% necrotic cells (C++) (Caco-2 cells [1]; 12 h treatment): 0.4 ± 0.1%
% viable cells (C−−) (Caco-2 cells [1]; 12 h treatment): 93.65 ± 14.0%
% early apoptotic cells (C+−) (Caco-2 cells [1]; 24 h treatment): 75.3 ± 13.8 %
% late apoptotic cells (C−+) (Caco-2 cells [1]; 24 h treatment): 0.0%
% necrotic cells (C++) (Caco-2 cells [1]; 24 h treatment): 0.18 ± 0.05%
% viable cells (C−−) (Caco-2 cells [1]; 24 h treatment): 24.5 ± 11.8 %
SI (selectivity index) (HepG2): 1.2 ± 0.002
IC50 (HepG2): 42.2 ± 0.92 µM
IC50 (Huh7): > 100 µM
SI (selectivity index) (Huh7): 0.14 ±0.01
inhibition in Caco-2 cell invasion compared to control (Caco-2 cells [2]): 7.2%
percentage inhibition of Caco-2 cell invasion (Caco-2 cells [2]): 17.2%
Total antioxidant activity (TAO) (Caco-2 cells [3]): 22.6 ± 0.024 µM/L
released (extracellular) glutamate, magnitude of reduction (Caco-2 cells [4]): 1.4%
IC50 (WI-38): 48.4 ± 1.2 µM
SI (selectivity index) (WI-38): 1
% G0-G1 (Caco-2 cells [5]; 12 h treatment): 39.1 ± 6.7%
% G2M (Caco-2 cells [5]; 12 h treatment): 9.1 ± 1.3 %
% S (Caco-2 cells [5]; 12 h treatment): 51.5 ± 7.2 %
% SubG0-G1 (Caco-2 cells [5]; 12 h treatment): 0.29 ± 0.1%
%G2M/G0-G1 (Caco-2 cells [5]; 12 h treatment): 23.4 ± 2.8 %
% G0-G1 (Caco-2 cells [5]; 24 h treatment): 29.0 ± 4.1%
% G2M (Caco-2 cells [5]; 24 h treatment): 22.5 ± 3.1 %
% S (Caco-2 cells [5]; 24 h treatment): 44.0 ± 8.2 %
% SubG0-G1 (Caco-2 cells [5]; 24 h treatment): 4.5 ± 0.6 %
%G2M/G0-G1 (Caco-2 cells [5]; 24 h treatment): 77.6 ± 10.8 %

CC1(C)CCC(C)(C)c2cc(C#Cc3ccc(C(=O)O)cc3)ccc21 [EC23, 4-(5,5,8,8-tetramethyl-5,6,7,8-tetrahydronaphthalen-2-ylethynyl) benzoic acid]
IC50 (Vero): 35.2 ± 1.02 µM
% Apoptotic index (AI) (Caco-2 cells [1]; 12 h treatment): 8.3%
% early apoptotic cells (C+−) (Caco-2 cells [1]; 12 h treatment): 8.34 ± 1.1%
% late apoptotic cells (C−+) (Caco-2 cells [1]; 12 h treatment): 0.01%
% necrotic cells (C++) (Caco-2 cells [1]; 12 h treatment): 0.05%
% viable cells (C−−) (Caco-2 cells [1]; 12 h treatment): 91.61 ± 13.7%
% early apoptotic cells (C+−) (Caco-2 cells [1]; 24 h treatment): 65.4 ± 18.4 %
% late apoptotic cells (C−+) (Caco-2 cells [1]; 24 h treatment): 0.0%
% necrotic cells (C++) (Caco-2 cells [1]; 24 h treatment): 0.16 ± 0.14%
% viable cells (C−−) (Caco-2 cells [1]; 24 h treatment): 34.4 ± 18.3 %
SI (selectivity index) (HepG2): 10.82 ± 1.0
IC50 (HepG2): 0.74 ± 0.001 µM
IC50 (Huh7): > 100 µM
SI (selectivity index) (Huh7): 0.02 ± 0.001
inhibition in Caco-2 cell invasion compared to control (Caco-2 cells [2]): 4.8%
percentage inhibition of Caco-2 cell invasion (Caco-2 cells [2]): 15.8%
Total antioxidant activity (TAO) (Caco-2 cells [3]): 22.6 ± 0.024 µM/L
released (extracellular) glutamate, magnitude of reduction (Caco-2 cells [4]): 5%
IC50 (WI-38): 8.01 ± 0.13 µM
SI (selectivity index) (WI-38): 1
% G0-G1 (Caco-2 cells [5]; 12 h treatment): 58.7 ± 8.2%
% G2M (Caco-2 cells [5]; 12 h treatment): 6.8 ± 0.8 %
% S (Caco-2 cells [5]; 12 h treatment): 34.0 ± 4.1%
% SubG0-G1 (Caco-2 cells [5]; 12 h treatment): 0.46 ± 0.1%
%G2M/G0-G1 (Caco-2 cells [5]; 12 h treatment): 11.6 ± 1.7 %
% G0-G1 (Caco-2 cells [5]; 24 h treatment): 32.7 ± 4.6%
% G2M (Caco-2 cells [5]; 24 h treatment): 15.8 ± 1.9 %
% S (Caco-2 cells [5]; 24 h treatment): 47.6 ± 9.1 %
% SubG0-G1 (Caco-2 cells [5]; 24 h treatment): 3.9 ± 0.43 %
%G2M/G0-G1 (Caco-2 cells [5]; 24 h treatment): 48.3 ± 6.8 %
